Experimental data from ChEMBL document CHEMBL4507312 (2021).

Columns and labels:
[1] = biological target: Beta-2 adrenergic receptor (Homo sapiens) (UniProt P07550); settings: Compound concentration 10.0 uM
[2] = biological target: 5-hydroxytryptamine receptor 1B (Homo sapiens) (UniProt P28222); settings: Compound concentration 10.0 uM
[3] = biological target: Muscarinic acetylcholine receptor M3 (Homo sapiens) (UniProt P20309); settings: Compound concentration 10.0 uM
[4] = biological target: Beta-3 adrenergic receptor (Homo sapiens) (UniProt P13945); settings: Compound concentration 10.0 uM
[5] = biological target: Delta-type opioid receptor (Homo sapiens) (UniProt P41143); settings: Compound concentration 10.0 uM
[6] = biological target: 5-hydroxytryptamine receptor 5A (Homo sapiens) (UniProt P47898); settings: Compound concentration 10.0 uM
[7] = biological target: Sodium-dependent serotonin transporter (Homo sapiens) (UniProt P31645); settings: Compound concentration 10.0 uM
Chain of Sodium-dependent serotonin transporter (Homo sapiens) (P31645 whole entry, looked up): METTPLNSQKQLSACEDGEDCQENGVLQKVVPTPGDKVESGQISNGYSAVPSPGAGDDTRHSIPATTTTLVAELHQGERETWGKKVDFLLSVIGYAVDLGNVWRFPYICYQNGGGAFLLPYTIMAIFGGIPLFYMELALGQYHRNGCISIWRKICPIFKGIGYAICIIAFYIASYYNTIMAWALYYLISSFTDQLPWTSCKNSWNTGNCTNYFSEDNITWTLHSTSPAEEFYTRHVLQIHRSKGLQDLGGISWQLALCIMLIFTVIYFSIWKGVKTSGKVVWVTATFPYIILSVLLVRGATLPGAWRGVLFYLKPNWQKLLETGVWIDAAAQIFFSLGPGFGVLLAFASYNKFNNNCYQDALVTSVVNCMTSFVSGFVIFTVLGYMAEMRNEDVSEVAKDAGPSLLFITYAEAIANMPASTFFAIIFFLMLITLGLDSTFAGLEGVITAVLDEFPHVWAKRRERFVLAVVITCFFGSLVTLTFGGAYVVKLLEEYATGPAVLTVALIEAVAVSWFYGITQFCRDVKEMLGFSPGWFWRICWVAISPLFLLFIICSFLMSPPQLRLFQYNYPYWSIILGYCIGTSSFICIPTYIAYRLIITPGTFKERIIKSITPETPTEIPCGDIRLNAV

[8] = biological target: 5-hydroxytryptamine receptor 7 (Homo sapiens) (UniProt P34969); settings: Compound concentration 10.0 uM
[9] = biological target: T1, Sigma intracellular receptor 2 (Homo sapiens, UniProt Q5BJF2); settings: Compound concentration 10.0 uM
T1 sequence (Q5BJF2 whole entry): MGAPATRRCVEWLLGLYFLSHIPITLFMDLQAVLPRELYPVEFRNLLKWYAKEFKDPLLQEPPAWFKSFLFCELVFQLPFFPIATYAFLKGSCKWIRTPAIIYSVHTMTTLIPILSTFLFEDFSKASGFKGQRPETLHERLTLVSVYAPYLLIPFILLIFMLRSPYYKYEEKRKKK

[10] = biological target: Mu-type opioid receptor (Homo sapiens) (UniProt P35372); settings: Compound concentration 10.0 uM
[11] = biological target: Alpha-1B adrenergic receptor (Homo sapiens) (UniProt P35368); settings: Compound concentration 10.0 uM
Chain of Alpha-1B adrenergic receptor (Homo sapiens) (P35368 whole entry): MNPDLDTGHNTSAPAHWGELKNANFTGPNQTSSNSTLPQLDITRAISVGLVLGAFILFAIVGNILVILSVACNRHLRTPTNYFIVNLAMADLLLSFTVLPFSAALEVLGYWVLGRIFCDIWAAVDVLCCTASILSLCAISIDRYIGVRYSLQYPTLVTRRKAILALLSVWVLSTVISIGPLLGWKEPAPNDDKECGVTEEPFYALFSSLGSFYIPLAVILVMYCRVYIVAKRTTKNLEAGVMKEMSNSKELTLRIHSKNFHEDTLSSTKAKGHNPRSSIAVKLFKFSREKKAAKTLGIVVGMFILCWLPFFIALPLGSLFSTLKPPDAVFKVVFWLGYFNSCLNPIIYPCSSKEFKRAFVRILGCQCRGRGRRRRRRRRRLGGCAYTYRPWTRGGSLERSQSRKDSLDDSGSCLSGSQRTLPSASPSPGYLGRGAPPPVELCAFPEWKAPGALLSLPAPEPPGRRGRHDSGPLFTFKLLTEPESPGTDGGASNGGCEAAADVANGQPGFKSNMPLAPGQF

[12] = biological target: Muscarinic acetylcholine receptor M5 (Homo sapiens) (UniProt P08912); settings: Compound concentration 10.0 uM
[13] = biological target: Alpha-2C adrenergic receptor (Homo sapiens) (UniProt P18825); settings: Compound concentration 10.0 uM
Chain of Alpha-2C adrenergic receptor (Homo sapiens) (P18825 whole entry): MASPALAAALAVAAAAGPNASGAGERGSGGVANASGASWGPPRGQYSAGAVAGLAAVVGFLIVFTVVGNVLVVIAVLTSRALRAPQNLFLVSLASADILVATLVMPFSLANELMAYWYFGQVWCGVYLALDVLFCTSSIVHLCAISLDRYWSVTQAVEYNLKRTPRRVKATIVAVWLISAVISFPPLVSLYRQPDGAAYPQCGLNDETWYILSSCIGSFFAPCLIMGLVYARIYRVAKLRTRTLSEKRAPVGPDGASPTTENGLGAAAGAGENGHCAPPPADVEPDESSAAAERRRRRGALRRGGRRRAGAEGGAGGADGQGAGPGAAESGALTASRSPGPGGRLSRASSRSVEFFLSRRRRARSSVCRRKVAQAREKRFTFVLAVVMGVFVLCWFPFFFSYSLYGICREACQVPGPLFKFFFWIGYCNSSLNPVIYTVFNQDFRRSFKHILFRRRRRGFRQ

[14] = biological target: Sodium-dependent dopamine transporter (Homo sapiens) (UniProt Q01959); settings: Compound concentration 10.0 uM
[15] = biological target: Alpha-1A adrenergic receptor (Homo sapiens) (UniProt P35348); settings: Compound concentration 10.0 uM
[16] = biological target: D(4) dopamine receptor (Homo sapiens) (UniProt P21917); settings: Compound concentration 10.0 uM
[17] = biological target: Sodium-dependent noradrenaline transporter (Homo sapiens) (UniProt P23975); settings: Compound concentration 10.0 uM
[18] = biological target: 5-hydroxytryptamine receptor 3A (Homo sapiens) (UniProt P46098); settings: Compound concentration 10.0 uM
[19] = biological target: 5-hydroxytryptamine receptor 2B (Homo sapiens) (UniProt P41595); settings: Compound concentration 10.0 uM
Rattus norvegicus = species on record: Rattus norvegicus; settings: Compound concentration 10.0 uM
[20] = biological target: Muscarinic acetylcholine receptor M4 (Homo sapiens) (UniProt P08173); settings: Compound concentration 10.0 uM
Chain of Muscarinic acetylcholine receptor M4 (Homo sapiens) (P08173 whole entry): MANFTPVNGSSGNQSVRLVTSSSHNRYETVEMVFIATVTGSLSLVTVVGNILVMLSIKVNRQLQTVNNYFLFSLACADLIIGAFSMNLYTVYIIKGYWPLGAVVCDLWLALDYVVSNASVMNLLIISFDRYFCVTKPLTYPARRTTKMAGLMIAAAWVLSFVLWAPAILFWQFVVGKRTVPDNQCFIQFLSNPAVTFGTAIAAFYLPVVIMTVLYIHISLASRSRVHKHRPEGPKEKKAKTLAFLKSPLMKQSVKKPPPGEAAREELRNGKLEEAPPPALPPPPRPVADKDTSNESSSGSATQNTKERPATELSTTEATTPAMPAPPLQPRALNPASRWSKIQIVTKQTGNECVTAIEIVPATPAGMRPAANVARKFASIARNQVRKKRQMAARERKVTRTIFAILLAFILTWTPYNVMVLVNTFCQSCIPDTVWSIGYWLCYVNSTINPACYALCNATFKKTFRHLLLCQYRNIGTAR

[21] = biological target: D(1B) dopamine receptor (Homo sapiens) (UniProt P21918); settings: Compound concentration 10.0 uM
[22] = biological target: Alpha-1D adrenergic receptor (Homo sapiens) (UniProt P25100); settings: Compound concentration 10.0 uM
[23] = biological target: Kappa-type opioid receptor (Homo sapiens) (UniProt P41145); settings: Compound concentration 10.0 uM
[24] = biological target: Beta-1 adrenergic receptor (Homo sapiens) (UniProt P08588); settings: Compound concentration 10.0 uM
[25] = biological target: 5-hydroxytryptamine receptor 6 (Homo sapiens) (UniProt P50406); settings: Compound concentration 10.0 uM
Chain of 5-hydroxytryptamine receptor 6 (Homo sapiens) (P50406 whole entry): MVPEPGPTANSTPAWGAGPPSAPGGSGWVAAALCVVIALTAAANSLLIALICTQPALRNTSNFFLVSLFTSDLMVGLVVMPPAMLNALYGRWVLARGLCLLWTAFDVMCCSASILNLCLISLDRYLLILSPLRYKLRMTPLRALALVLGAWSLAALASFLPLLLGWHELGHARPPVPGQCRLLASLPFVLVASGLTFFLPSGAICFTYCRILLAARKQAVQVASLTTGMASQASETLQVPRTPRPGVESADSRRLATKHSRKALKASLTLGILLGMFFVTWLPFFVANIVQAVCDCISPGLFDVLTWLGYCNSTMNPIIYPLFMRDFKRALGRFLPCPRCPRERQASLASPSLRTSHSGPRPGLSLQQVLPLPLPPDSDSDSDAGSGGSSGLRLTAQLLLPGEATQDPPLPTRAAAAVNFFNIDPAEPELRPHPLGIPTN

[26] = biological target: Muscarinic acetylcholine receptor M2 (Homo sapiens) (UniProt P08172); settings: Compound concentration 10.0 uM
[27] = biological target: Alpha-2A adrenergic receptor (Homo sapiens) (UniProt P08913); settings: Compound concentration 10.0 uM
Chain of Alpha-2A adrenergic receptor (Homo sapiens) (P08913 whole entry): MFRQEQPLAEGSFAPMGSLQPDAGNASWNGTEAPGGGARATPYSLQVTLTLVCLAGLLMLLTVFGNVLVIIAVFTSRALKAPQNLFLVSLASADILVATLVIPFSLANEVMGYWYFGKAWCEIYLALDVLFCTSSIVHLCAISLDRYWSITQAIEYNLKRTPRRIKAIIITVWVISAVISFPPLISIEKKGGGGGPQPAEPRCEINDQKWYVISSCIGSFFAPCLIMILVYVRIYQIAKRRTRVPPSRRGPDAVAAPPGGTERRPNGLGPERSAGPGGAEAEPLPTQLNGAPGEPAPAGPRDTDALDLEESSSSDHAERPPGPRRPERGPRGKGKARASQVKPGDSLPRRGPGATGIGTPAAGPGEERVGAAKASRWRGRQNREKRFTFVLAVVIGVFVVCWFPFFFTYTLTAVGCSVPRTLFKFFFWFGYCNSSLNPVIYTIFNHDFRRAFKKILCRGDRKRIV

[28] = biological target: 5-hydroxytryptamine receptor 1A (Homo sapiens) (UniProt P08908); settings: Compound concentration 10.0 uM
Chain of 5-hydroxytryptamine receptor 1A (Homo sapiens) (P08908 whole entry): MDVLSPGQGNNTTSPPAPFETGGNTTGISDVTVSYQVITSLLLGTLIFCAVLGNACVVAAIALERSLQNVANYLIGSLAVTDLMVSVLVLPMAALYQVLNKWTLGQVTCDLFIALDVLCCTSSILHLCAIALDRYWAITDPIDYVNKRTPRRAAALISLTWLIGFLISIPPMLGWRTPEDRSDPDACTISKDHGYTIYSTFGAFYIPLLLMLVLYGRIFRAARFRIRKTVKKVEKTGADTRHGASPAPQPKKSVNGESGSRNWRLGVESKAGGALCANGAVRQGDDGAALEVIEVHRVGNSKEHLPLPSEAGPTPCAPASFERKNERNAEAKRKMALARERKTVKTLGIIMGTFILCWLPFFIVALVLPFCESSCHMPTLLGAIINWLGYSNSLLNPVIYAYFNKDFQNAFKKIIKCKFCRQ

[29] = biological target: Histamine H4 receptor (Homo sapiens) (UniProt Q9H3N8); settings: Compound concentration 10.0 uM
Chain of Histamine H4 receptor (Homo sapiens) (Q9H3N8 whole entry): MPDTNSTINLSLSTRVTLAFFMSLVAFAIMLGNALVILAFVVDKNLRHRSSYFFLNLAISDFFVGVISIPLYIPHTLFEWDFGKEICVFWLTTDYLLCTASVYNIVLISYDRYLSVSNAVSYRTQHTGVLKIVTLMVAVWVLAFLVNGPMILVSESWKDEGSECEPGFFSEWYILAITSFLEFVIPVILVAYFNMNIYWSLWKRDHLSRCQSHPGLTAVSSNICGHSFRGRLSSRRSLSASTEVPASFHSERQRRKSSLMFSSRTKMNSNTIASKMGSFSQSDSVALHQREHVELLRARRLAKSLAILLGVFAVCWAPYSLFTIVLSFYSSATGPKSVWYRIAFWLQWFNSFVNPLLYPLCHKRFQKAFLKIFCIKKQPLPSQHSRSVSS

[30] = biological target: T1, Sigma intracellular receptor 2; assay: GPCRScan assay: inhibition of Sigma 2; parameters: radioligand conc. used [nm] 5.0, parental cells HEKT
[31] = biological target: 5-hydroxytryptamine receptor 2C (Homo sapiens) (UniProt P28335); settings: Compound concentration 10.0 uM
[32] = biological target: Alpha-2B adrenergic receptor (Homo sapiens) (UniProt P18089); settings: Compound concentration 10.0 uM
[33] = biological target: Histamine H1 receptor (Homo sapiens) (UniProt P35367); settings: Compound concentration 10.0 uM
Chain of Histamine H1 receptor (Homo sapiens) (P35367 whole entry): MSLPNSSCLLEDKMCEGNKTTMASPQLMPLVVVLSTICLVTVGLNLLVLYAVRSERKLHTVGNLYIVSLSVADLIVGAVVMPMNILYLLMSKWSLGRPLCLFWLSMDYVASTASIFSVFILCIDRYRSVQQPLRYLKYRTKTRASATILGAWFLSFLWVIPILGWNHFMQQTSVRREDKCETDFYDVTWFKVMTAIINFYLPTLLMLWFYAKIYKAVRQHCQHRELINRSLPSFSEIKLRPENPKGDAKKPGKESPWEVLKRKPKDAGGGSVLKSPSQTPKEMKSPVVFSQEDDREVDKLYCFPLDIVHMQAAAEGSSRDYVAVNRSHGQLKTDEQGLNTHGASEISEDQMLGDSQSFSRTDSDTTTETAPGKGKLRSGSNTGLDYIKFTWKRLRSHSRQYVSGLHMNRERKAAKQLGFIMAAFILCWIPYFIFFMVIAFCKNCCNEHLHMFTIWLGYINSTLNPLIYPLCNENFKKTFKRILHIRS

[34] = biological target: 5-hydroxytryptamine receptor 2A (Homo sapiens) (UniProt P28223); settings: Compound concentration 10.0 uM
Chain of 5-hydroxytryptamine receptor 2A (Homo sapiens) (P28223 whole entry): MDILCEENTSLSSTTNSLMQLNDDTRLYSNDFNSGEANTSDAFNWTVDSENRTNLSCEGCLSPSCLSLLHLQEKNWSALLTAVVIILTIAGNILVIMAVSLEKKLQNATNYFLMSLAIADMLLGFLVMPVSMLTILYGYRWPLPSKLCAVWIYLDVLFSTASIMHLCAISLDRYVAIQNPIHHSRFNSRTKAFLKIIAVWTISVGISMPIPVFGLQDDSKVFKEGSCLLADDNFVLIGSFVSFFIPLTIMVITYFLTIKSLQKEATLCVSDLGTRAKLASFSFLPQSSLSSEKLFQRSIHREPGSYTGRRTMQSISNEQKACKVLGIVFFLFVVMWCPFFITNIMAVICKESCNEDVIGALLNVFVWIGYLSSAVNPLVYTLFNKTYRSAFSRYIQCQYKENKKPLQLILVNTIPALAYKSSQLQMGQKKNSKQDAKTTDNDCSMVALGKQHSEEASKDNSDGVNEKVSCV

[35] = biological target: Muscarinic acetylcholine receptor M1 (Homo sapiens) (UniProt P11229); settings: Compound concentration 10.0 uM

SMILES: Cc1c(Oc2ccc(F)cc2)c(OC(C)C)nn1-c1ccc(C2CC2)cn1 [IPP/CNRS-A019]
- inhibition [1]: 17%
- inhibition [2]: -6.09%
- inhibition [3]: -6.6%
- inhibition [4]: 17.6%
- inhibition [5]: 1.01%
- inhibition [6]: -6.43%
- inhibition [7]: -0.39%
- inhibition [8]: 15.8%
- inhibition [9]: 64.9%
- inhibition [10]: -1.35%
- inhibition [11]: -4.23%
- inhibition [12]: 4.72%
- inhibition [13]: 8.56%
- inhibition [14]: -6.74%
- inhibition [15]: -2.65%
- inhibition [16]: -4.56%
- inhibition [17]: 0.15%
- inhibition [18]: 11.7%
- inhibition [19]: 22.8%
- inhibition (Rattus norvegicus): -2.86%
- inhibition [20]: 10.3%
- inhibition [21]: -2.37%
- inhibition [22]: -0.81%
- inhibition [23]: -0.09%
- inhibition [24]: 23.9%
- inhibition [25]: 9.36%
- inhibition [26]: 16.2%
- inhibition [27]: 7.06%
- inhibition [28]: 0.45%
- inhibition [29]: -0.91%
- Ki ([30]; read-out: Ki): 5.25 µM
- Ki ([30]; read-out: pKi (converted)): 4.47 µM
- inhibition [31]: -1.77%
- inhibition [32]: 13.3%
- inhibition [33]: 21.2%
- inhibition [34]: -7.39%
- inhibition [35]: 5.35%
